Assay results: patent publication US10710978B2, “STK4 inhibitors for treatment of hematologic malignancies” (Dana-Farber Cancer Institute, Inc., priority 2015, dated 2020)
Like-named read-outs stand apart in the source and are kept apart here.

How the values were obtained:
[1] = target: STK4 (MST1) (Homo sapiens (Human), UniProt Q13043); experiment: Z-lyte biochemical IC50 assay (Invitrogen); conditions: ATP concentration matched the Km
Experimental: (§1) STK4 (MST1), STK3 (MST2); STK24 (MST3) and MST4 Assays
(§2) Biochemical IC50s were measured at Invitrogen using Z-lyte technology. Briefly, for STK4, the 2×STK4 (MST1)/Ser/Thr 07 mixture was prepared in 50 mM HEPES pH 7.5, 0.01% BRIJ35, 10 mM MgCl2, 1 mM EGTA. The final 10 μL Kinase Reaction consisted of 6.25-160 ng STK4 (MST1) and 2 μM Ser/Thr 07 in 50 mM HEPES pH 7.5, 0.01% BRIJ-35, 10 mM MgCl2, 1 mM EGTA. After the 1 hour Kinase Reaction incubation, 5 μL of a 1:100000 dilution of Development Reagent A was added. Compounds were screened in a 10 point titration with 3-fold serial dilutions starting at a concentration of 10 μM. The biochemical IC50s against other STK family members were measured similarly. The ATP concentration used matched the Km for each kinase.

[2] = target: STK24 (MST3) (Homo sapiens (Human), UniProt Q9Y6E0); experiment: Z-lyte biochemical IC50 assay (Invitrogen); conditions: ATP concentration matched the Km
Experimental: as §1, §2

[3] = target: PKCz (Homo sapiens (Human), UniProt Q05513); experiment: KiNativ assay; type: binding; conditions: H929 live cell
Experimental: (§3) Biochemical IC50s of the compounds of the present disclosure against various kinases were measured in a KiNativ assay. Compounds were screened in duplicate at 10 μM in H929 live cell. IC50 was measured via Mass spectroscopy (MS).

[4] = target: SRPK2 (Homo sapiens (Human), UniProt P78362); experiment: KiNativ assay; type: binding; conditions: H929 live cell
Chain of SRPK2 (P78362 whole entry): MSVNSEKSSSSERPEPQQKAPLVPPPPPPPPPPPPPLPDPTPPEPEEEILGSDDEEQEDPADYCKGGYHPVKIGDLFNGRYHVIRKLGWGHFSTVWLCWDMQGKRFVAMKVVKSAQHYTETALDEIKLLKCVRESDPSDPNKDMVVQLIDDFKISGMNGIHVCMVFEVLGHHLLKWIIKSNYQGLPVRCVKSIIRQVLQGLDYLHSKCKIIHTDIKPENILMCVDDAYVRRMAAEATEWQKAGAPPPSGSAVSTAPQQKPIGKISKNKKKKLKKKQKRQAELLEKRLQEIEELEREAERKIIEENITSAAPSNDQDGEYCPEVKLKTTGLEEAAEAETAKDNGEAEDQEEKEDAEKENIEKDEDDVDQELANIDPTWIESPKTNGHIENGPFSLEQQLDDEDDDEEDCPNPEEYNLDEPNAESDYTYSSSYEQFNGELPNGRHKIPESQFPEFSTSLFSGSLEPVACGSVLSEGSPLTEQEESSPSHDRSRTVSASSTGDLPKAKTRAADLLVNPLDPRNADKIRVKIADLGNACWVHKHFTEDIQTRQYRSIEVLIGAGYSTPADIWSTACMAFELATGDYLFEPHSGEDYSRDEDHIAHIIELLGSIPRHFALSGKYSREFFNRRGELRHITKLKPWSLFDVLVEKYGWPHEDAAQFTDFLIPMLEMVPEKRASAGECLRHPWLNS
Experimental: as §3

[5] = tested on: IKKe, TBK1; experiment: KiNativ assay; type: binding; conditions: H929 live cell
Experimental: as §3

[6] = tested on: FYN, SRC, YES; experiment: KiNativ assay; type: binding; conditions: H929 live cell
Experimental: as §3

[7] = target: PHKg2 (Homo sapiens (Human), UniProt P15735); experiment: KiNativ assay; type: binding; conditions: H929 live cell
Chain of PHKg2 (P15735 whole entry): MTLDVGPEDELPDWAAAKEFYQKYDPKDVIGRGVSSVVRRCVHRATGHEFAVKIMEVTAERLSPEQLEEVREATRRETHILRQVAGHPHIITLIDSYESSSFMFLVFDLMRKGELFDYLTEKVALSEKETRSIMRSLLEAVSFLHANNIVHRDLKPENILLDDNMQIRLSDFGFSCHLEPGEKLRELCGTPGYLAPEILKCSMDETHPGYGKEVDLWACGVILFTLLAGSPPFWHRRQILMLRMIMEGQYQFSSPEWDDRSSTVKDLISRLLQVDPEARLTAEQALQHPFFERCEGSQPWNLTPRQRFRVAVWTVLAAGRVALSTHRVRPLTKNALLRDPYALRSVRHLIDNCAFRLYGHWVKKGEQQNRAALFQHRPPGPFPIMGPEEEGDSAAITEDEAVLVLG
Experimental: as §3

[8] = target: MARK2 (Homo sapiens (Human), UniProt Q7KZI7); experiment: KiNativ assay; type: binding; conditions: H929 live cell
Chain of MARK2 (Q7KZI7 whole entry): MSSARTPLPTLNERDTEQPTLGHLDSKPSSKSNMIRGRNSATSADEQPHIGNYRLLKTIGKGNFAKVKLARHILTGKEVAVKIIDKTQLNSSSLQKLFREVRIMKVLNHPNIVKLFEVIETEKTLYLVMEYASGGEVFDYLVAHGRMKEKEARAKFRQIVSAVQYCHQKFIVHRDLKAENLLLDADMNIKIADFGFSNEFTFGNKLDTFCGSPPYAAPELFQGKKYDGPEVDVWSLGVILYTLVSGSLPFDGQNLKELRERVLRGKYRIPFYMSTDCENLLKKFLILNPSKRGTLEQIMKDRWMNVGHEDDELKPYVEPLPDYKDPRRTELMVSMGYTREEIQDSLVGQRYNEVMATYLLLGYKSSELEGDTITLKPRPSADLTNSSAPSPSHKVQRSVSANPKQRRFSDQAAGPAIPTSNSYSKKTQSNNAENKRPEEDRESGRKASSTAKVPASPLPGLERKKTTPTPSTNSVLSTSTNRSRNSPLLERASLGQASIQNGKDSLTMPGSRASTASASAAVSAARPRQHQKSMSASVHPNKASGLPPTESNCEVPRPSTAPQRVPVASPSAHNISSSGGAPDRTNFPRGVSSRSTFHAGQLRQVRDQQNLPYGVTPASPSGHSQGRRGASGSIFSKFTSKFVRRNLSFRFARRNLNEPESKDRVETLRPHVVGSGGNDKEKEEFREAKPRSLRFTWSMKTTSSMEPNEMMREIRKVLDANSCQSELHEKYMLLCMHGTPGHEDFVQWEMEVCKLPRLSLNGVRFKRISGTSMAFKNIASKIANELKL
Experimental: as §3

[9] = tested on: MST4; experiment: KiNativ assay; type: binding; conditions: H929 live cell
Experimental: as §3

[10] = target: PKD3 (Homo sapiens (Human), UniProt O94806); experiment: KiNativ assay; type: binding; conditions: H929 live cell
Experimental: as §3

[11] = target: PIP4K2A (Homo sapiens (Human), UniProt P48426); experiment: KiNativ assay; type: binding; conditions: H929 live cell
Experimental: as §3

[12] = target: CaMKK2 (Homo sapiens (Human), UniProt Q96RR4); experiment: KiNativ assay; type: binding; conditions: H929 live cell
Experimental: as §3

[13] = target: NEK8 (Homo sapiens (Human), UniProt Q86SG6); experiment: KiNativ assay; type: binding; conditions: H929 live cell
Experimental: as §3

[14] = tested on: Wnk1, Wnk2, Wnk3; experiment: KiNativ assay; type: binding; conditions: H929 live cell
Experimental: as §3

[15] = tested on: RSK1 domain1, RSK2 domain1, RSK3 domain1; experiment: KiNativ assay; type: binding; conditions: H929 live cell
Experimental: as §3

[16] = target: RSK2 domain1 (Homo sapiens (Human), UniProt P51812); experiment: KiNativ assay; type: binding; conditions: H929 live cell
Experimental: as §3

[17] = target: SMG1 (Homo sapiens (Human), UniProt Q96Q15); experiment: KiNativ assay; type: binding; conditions: H929 live cell
Experimental: as §3

[18] = target: TLK1 (Homo sapiens (Human), UniProt Q9UKI8); experiment: KiNativ assay; type: binding; conditions: H929 live cell
Chain of TLK1 (Q9UKI8 whole entry): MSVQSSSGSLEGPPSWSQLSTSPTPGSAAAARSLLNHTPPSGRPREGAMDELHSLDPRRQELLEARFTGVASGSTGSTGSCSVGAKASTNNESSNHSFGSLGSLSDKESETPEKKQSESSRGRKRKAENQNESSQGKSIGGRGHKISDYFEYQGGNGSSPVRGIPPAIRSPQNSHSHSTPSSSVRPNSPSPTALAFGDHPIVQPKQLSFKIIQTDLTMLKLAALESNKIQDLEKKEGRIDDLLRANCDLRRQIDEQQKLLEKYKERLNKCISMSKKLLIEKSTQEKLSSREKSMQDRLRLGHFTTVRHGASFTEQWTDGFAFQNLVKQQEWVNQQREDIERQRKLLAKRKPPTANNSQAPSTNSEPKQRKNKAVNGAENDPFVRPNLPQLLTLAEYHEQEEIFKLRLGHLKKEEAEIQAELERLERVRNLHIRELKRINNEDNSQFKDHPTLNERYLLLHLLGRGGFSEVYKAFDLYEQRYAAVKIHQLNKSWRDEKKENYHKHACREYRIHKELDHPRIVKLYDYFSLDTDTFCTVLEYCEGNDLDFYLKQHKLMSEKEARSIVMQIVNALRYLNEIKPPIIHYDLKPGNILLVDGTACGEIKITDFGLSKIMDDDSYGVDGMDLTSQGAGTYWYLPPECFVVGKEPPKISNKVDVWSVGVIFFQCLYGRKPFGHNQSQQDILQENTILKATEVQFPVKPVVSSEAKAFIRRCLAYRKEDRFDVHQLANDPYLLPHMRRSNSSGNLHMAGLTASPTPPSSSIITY
Experimental: as §3

[19] = target: TLK2 (Homo sapiens (Human), UniProt Q86UE8); experiment: KiNativ assay; type: binding; conditions: H929 live cell
Experimental: as §3

[20] = target: MAP2K6 (Homo sapiens (Human), UniProt P52564); experiment: KiNativ assay; type: binding; conditions: H929 live cell
Experimental: as §3

[21] = target: MLKL (Homo sapiens (Human), UniProt Q8NB16); experiment: KiNativ assay; type: binding; conditions: H929 live cell
Experimental: as §3

[22] = target: SGK3 (Homo sapiens (Human), UniProt Q96BR1); experiment: KiNativ assay; type: binding; conditions: H929 live cell
Experimental: as §3

[23] = target: RSKL1 (Homo sapiens (Human), UniProt Q96S38); experiment: KiNativ assay; type: binding; conditions: H929 live cell
Chain of RSKL1 (Q96S38 whole entry): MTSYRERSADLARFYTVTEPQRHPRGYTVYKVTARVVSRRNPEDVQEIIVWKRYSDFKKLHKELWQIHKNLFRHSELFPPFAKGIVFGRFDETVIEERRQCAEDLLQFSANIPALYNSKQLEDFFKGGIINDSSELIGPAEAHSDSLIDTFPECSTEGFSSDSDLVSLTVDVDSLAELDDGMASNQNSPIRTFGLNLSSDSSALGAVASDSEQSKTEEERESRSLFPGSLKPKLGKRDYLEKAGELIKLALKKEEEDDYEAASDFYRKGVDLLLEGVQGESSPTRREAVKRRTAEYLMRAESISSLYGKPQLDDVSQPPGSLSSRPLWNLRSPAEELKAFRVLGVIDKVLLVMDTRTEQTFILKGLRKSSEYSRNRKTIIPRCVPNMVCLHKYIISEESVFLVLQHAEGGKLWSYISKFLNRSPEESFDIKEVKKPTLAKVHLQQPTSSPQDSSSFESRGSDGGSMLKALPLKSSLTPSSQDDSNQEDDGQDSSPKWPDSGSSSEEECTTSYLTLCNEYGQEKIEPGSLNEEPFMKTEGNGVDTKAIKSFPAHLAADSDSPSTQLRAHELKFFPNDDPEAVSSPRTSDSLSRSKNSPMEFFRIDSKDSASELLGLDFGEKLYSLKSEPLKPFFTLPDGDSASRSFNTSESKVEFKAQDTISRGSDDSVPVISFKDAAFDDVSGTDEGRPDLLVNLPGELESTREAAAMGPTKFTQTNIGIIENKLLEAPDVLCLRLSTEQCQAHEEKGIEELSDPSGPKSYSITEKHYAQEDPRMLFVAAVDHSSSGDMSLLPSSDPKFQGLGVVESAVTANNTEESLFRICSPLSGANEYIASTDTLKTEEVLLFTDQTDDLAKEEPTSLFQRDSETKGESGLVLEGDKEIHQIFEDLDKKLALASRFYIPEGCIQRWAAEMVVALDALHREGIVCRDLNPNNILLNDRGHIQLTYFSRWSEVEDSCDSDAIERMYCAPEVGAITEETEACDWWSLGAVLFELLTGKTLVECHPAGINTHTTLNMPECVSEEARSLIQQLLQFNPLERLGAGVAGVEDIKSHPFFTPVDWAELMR
Experimental: as §3

[24] = target: IKKa (Homo sapiens (Human), UniProt O15111); experiment: KiNativ assay; type: binding; conditions: H929 live cell
Experimental: as §3

[25] = target: CK1g3 (Homo sapiens (Human), UniProt Q9Y6M4); experiment: KiNativ assay; type: binding; conditions: H929 live cell
Experimental: as §3

[26] = target: EphB2 (Homo sapiens (Human), UniProt P29323); experiment: KiNativ assay; type: binding; conditions: H929 live cell
Chain of EphB2 (P29323 19-1055): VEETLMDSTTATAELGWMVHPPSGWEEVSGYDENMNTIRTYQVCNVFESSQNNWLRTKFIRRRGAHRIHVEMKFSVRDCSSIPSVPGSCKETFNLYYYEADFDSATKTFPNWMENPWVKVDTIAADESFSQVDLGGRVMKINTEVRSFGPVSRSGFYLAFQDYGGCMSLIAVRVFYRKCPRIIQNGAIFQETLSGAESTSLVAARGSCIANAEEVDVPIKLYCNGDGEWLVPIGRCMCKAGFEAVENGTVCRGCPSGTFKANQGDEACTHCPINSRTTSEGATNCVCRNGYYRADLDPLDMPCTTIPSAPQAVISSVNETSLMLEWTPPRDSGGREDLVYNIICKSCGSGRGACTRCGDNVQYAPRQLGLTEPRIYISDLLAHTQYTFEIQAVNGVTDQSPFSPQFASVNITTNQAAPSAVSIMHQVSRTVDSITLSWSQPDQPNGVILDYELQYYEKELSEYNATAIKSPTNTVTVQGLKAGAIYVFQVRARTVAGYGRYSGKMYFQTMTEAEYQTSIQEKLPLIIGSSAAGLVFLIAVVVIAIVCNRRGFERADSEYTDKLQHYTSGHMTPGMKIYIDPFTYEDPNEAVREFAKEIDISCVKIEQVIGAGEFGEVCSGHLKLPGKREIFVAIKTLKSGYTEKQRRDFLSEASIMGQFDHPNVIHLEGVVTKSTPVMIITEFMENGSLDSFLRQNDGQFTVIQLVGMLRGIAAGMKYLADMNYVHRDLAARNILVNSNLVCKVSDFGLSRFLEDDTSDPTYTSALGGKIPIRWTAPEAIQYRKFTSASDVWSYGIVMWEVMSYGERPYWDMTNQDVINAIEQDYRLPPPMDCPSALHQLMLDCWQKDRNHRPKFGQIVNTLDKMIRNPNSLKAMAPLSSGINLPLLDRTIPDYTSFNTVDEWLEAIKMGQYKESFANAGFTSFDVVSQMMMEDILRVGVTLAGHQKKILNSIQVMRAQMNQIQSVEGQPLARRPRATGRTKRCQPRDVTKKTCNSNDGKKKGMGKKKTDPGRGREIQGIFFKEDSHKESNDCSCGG
Experimental: as §3

[27] = tested on: AurA, AurB, AurC; experiment: KiNativ assay; type: binding; conditions: H929 live cell
Experimental: as §3

[28] = target: RSK1 domain1 (Homo sapiens (Human), UniProt Q15418); experiment: KiNativ assay; type: binding; conditions: H929 live cell
Experimental: as §3

[29] = tested on: TAO1, TAO3; experiment: KiNativ assay; type: binding; conditions: H929 live cell
Experimental: as §3

## Nc1ncc(-c2cccc([N+](=O)[O-])c2F)cc1-c1ccc2c(c1)CCNC2=O [Compound I-9, 6-(2-amino-5-(2-fluoro-3-nitrophenyl)pyridin-3-yl)-3,4-dihydroisoquinolin-1(2H)-one]
[1]
  IC50: < 40 nM
[2]
  IC50: > 900 nM
[3]; read-out: % inhibition (range)
  inhibition at 10 µM: 0%
[3]; read-out: inhibition (10 μM)
  inhibition at 10 µM: 27%
[4]; read-out: % inhibition (range)
  inhibition at 10 µM: 0%
[4]; read-out: inhibition (10 μM)
  inhibition at 10 µM: 18.9%
[5]; 10 μM
  % inhibition (range): 0.0%
[5]
  inhibition (10 μM): 21.2%
[6]; 10 μM
  % inhibition (range): 0.0%
[6]
  inhibition (10 μM): 28.3%
[7]; read-out: % inhibition (range)
  inhibition at 10 µM: 0%
[7]; read-out: inhibition (10 μM)
  inhibition at 10 µM: -30.7%
[8]; read-out: % inhibition (range)
  inhibition at 10 µM: 50 to 75%
[8]; read-out: inhibition (10 μM)
  inhibition at 10 µM: 63.5%
[9]
  inhibition (10 μM): 47.0%
[10]; read-out: % inhibition (range)
  inhibition at 10 µM: 50 to 75%
[10]; read-out: inhibition (10 μM)
  inhibition at 10 µM: 74.2%
[11]; read-out: % inhibition (range)
  inhibition at 10 µM: 0%
[11]; read-out: inhibition (10 μM)
  inhibition at 10 µM: 10.2%
[12]; read-out: % inhibition (range)
  inhibition at 10 µM: 50 to 75%
[12]; read-out: inhibition (10 μM)
  inhibition at 10 µM: 71.8%
[13]; read-out: % inhibition (range)
  inhibition at 10 µM: 0%
[13]; read-out: inhibition (10 μM)
  inhibition at 10 µM: 11.6%
[14]; 10 μM
  % inhibition (range): >100%
[14]
  inhibition (10 μM): −105.5%
[15]; 10 μM
  % inhibition (range): 50-75%
[15]
  inhibition (10 μM): 58.7%
[16]; read-out: % inhibition (range)
  inhibition at 10 µM: 50 to 75%
[16]; read-out: inhibition (10 μM)
  inhibition at 10 µM: 69.9%
[17]; read-out: % inhibition (range)
  inhibition at 10 µM: > 90%
[17]; read-out: inhibition (10 μM)
  inhibition at 10 µM: 94.7%
[18]; read-out: % inhibition (range)
  inhibition at 10 µM: 0%
[18]; read-out: inhibition (10 μM)
  inhibition at 10 µM: 28.8%
[19]; read-out: % inhibition (range)
  inhibition at 10 µM: 0%
[19]; read-out: inhibition (10 μM)
  inhibition at 10 µM: 34%
[20]; read-out: % inhibition (range)
  inhibition at 10 µM: 0%
[20]; read-out: inhibition (10 μM)
  inhibition at 10 µM: 6.8%
[21]; read-out: % inhibition (range)
  inhibition at 10 µM: 50 to 75%
[21]; read-out: inhibition (10 μM)
  inhibition at 10 µM: 66.9%
[22]; read-out: % inhibition (range)
  inhibition at 10 µM: 50 to 75%
[22]; read-out: inhibition (10 μM)
  inhibition at 10 µM: 51.6%
[23]; read-out: % inhibition (range)
  inhibition at 10 µM: 0%
[23]; read-out: inhibition (10 μM)
  inhibition at 10 µM: 0.2%
[24]; read-out: % inhibition (range)
  inhibition at 10 µM: 0%
[24]; read-out: inhibition (10 μM)
  inhibition at 10 µM: -18.4%
[25]; read-out: % inhibition (range)
  inhibition at 10 µM: > 90%
[25]; read-out: inhibition (10 μM)
  inhibition at 10 µM: 93%
[26]; read-out: % inhibition (range)
  inhibition at 10 µM: 0%
[26]; read-out: inhibition (10 μM)
  inhibition at 10 µM: -25%
[27]; 10 μM
  % inhibition (range): 50-75%
[27]
  inhibition (10 μM): 66.2%
[28]; read-out: % inhibition (range)
  inhibition at 10 µM: 0%
[28]; read-out: inhibition (10 μM)
  inhibition at 10 µM: 24%
[29]; 10 μM
  % inhibition (range): 50-75%
[29]
  inhibition (10 μM): 67.5%
